Consider four molecules from patent US20250367290A1, “ENGINEERED STEM CELLS AND USES THEREOF” (Umoja Biopharma, Inc., priority 2022, published 2025).

By Kd is commonly meant the equilibrium constant for the complex coming apart.

Assay [1] relates to hematopoietic progenitors (CD34+/CD43+/CD45+). Put plainly: HP differentiation phase: rapamycin requirement. In kind it is cell-based. The method, then:
RACR iPSCs (edited B2M-EF1a-RACR and knocked out for FKBP12) were cultured in media, as described in Example 9. At day 0-2, embryoid bodies (EBs) were generated from a single cell suspension of iPSCs in STEMdiff APEL 2 Medium (STEMCELL Technologies) supplemented with BMP4, FGF2, VEGF, Y27632, and +/− rapalog (RL; AP21967) or +/− rapamycin (RM). EBs were formed using plates comprising aggregates of microwells (e.g. Aggrewell™ 800 plates) at 500 iPSC/EB or 1000 iPSC/EB, as described in Example 9 and shown in FIG. 34. As shown in FIG. 35A-B, higher iPSC confluency at the start of differentiation contributes to a higher HP yield. Further, a range of 200-250 iPSC/EBs seeded in microwells is optimal to achieve the highest HP yield on day 15 (FIG. 35C).
The differentiating EBs were moved to non-tissue culture treated 6-well plates (Corning) at day 6 and fresh HP Medium was added. Every 3 days from days 3-15, half of the media was replaced with HP Medium.

A further assay has as its system iCIL cells. Put plainly: iCIL differentiation and expansion in bioreactors. In kind it is cell-based. Conditions: iCIL differentiation phase. The method, then:
At Day 15 of culture, the differentiated cells were continued in culture for up to 40 days for iCIL cell generation. At Day 21, the GRex bioreactor was seeded with the cells, as described in Example 13. […] Lower seeding densities on days 15 and 24 contributed to increased iCIL yields, while higher seeding densities contributed to higher iCIL yields on Days 30-33 (FIG. 39B). In another experiment, this step was repeated with two different stirred-tank bioreactors at various stages in the protocol.
Thus, Aim V was used as the base medium for the iCIL differentiation phase. Components and supplements in the Aim V medium used during the iCIL differentiation phase were tested for their effect on iCIL yield and cytotoxicity.

The next assay has as its system FKBP12 KO iPSCs. The assay can be described thus: iPSC confluency during four days of rapamycin. In kind it is cell-based, human. Conditions: four days of treatment. The method, then:
(§1) RACR requires rapamycin for activation; however, rapamycin inhibits cell growth. To generate rapamycin resistant cells, the FKBP12 gene was knocked-out. […] In the absence of FKBP12, rapamycin cannot interact with the mTOR complex and thus loses its inhibitory capacity. The efficiency of the knockout was determined by Sanger sequencing. Con1, Con2, or Con3 indicate different electroporation conditions for CRISPR-Cas9 based editing resulting in differing levels of knockout. Phase-contrast images reveal normal iPSC morphology in both wild type and FKBP12 KO cells, FIG. 16B, right panel. The confluency of wildtype iPSCs after four days of treatment with varying doses of rapamycin with inhibition of growth at 1 nM rapamycin or higher is shown in FIG. 16C. […] The ability of clonal FKBP12 KO iPSCs to differentiate to hematopoietic progenitors (HPs) in the presence of rapamycin is shown in FIG. 16E.

A further assay has as its system wildtype iPSCs. Put plainly: iPSC confluency after four days of rapamycin. In kind it is cell-based, human. The note with it: four days of treatment. The method, then:
as §1

For assay [2], the system named is non-Hodgkin's lymphoma tumor cells. Put plainly: RACR-iCIL co-culture cytotoxicity with or without rituximab. In kind it is cell-based. Conditions: added to RACR-iCILs. As to the method: (§2) In a similar experiment, RACR-iCILs were cocultured with Burkitt's lymphoma tumor cells or non-Hodgkin's lymphoma tumor cells at a ratio of 2.5:1, 10:1, or 0:1, and stimulated with and without rapamycin and/or cytokines. Additional groups included rituximab. Cytotoxicity was determined by imaging cells across 40 hours, as described in Example 6.

Assay [3] concerns Burkitt's lymphoma tumor cells. Described as above. In kind it is cell-based. Conditions: added to RACR-iCILs. As to the method:
as §2

The test system of a further assay is TagCAR-RACR iCIL cells. Put plainly: RACR-driven differentiation and expansion of iCIL cells from Day 26 lymphoid progenitors. Conditions: AP21967 100 nM, no other cytokine. In kind it is cell-based, human. The text has this: The RACR-system was utilized for differentiation to iPSC-derived CIL cells (iCIL cells). The iPSC cell line ATCC-BXS0117 (ATCC #ACS-1031) was differentiated into lymphoid progenitors through the STEMdiff NK cell kit (STEMCELL® Technologies, #100-0170) as described in Example 2 above, up until the Day 26 timepoint. The percentage of cells containing common lymphoid progenitors (CD45+/CD5+/CD7+), CIL precursors (CD45+/CD5−/CD7+), and early CIL cells (CD45+/CD5−/CD7+/CD56+) is seen in FIG. 3D with ˜50% of the cells presenting as CIL precursors and ˜25% of total cells presenting as early CIL cells. In this study, Day 26 cells were pelleted and placed in a CIL expansion media at 2×10^6 cells/mL containing (IL-2, IL-15, IL-21, IL-18, IL-7 in complete RPMI media: RPMI1640, 10% FBS, 1× Pen-Strep, and 1× Glutamax). […]
At Day 27, the cells were transduced with either VSV-G lentivirus with the payload of Tag (anti-FITC) CAR-P2A-FRB-P2A-RACR at an MOI 10 with 10 µg/mL of protamine sulfate or treated with 10 μg/mL or protamine sulfate alone (Mock). […] An aliquot of cells was collected weekly, counted on the Vicell Blu automated cell counter, and stained for CD16 clone 3G8, CD56 clone HCD56, CD45 clone 2D1, CD5 clone L17F12, CD7 clone CD7-6B7 and anti-FITC CAR (TagCAR) detection through FITC-AF647.

The subject of another assay is RACR-iCILs. The assay can be described thus: Proliferation of D47 RACR-iCILs. In kind it is cell-based. The note with it: rapalog 100 nM. As to the method:
RACR-iCILs were generated similar to as described in FIG. 18A and FIG. 18B except without SCF and TPO included in the HP medium as described in Example 9 and FIG. 17A. Data shown are from two BE-RACR iPSC clones. At D40 RACR-iCILs were incubated for one week in a maturation medium containing IL-2, IL-7, IL-12, IL-15, IL-18 and activation beads (anti-CD2/NKp46). RACR-iCILs were then incubated with breast adenocarcinoma MDA-MB23 1 cells expressing a nuclear fluorescent protein at a 10:1 […] ratio in the presence of medium alone, cytokines (IL-2/IL-7/IL-15), or rapalog (100 nM). Cell mixtures were placed into an IncuCyte fluorescent microscope and imaged every 2 hours. The number of MDA-MB23 1 cells was quantified over time via a fluorescent marker and graphed as the ratio of MDA-MB23 1 cells compared to time 0 (time 0 is equal to one). […] RACR-iCILs were then collected, placed in fresh media, and then re-exposed to MDA-MB23 1 cells for a rechallenge (FIG. 19A). Proliferation of D47 RACR-iCILs was also evaluated in different cytokine treatments or rapalog (100 nM).

For the next assay, the system named is RACR-CAR+ cells. Put plainly: Differentiation of RACR-transduced CLP into CIL cells with or without common gamma chain cytokines. In kind it is cell-based, human.
Assay [4] has as its system PSMA-positive human prostate cancer cells. The note with it: DUPA-(99m) Tc; cited from earlier work.

Consider `CO[C@H]1C[C@@H]2CC[C@@H](C)[C@@](O)(O2)C(=O)C(=O)N2CCCC[C@H]2C(=O)O[C@H]([C@H](C)C[C@@H]2CC[C@@H](O)[C@H](OC)C2)CC(=O)[C@H](C)/C=C(\C)[C@@H](O)[C@@H](OC)C(=O)[C@H](C)C[C@H](C)/C=C/C=C/C=C/1C` [rapamycin], for which the “lowest rapamycin concentration sufficient to produce comparable HP yields” value in assay [1] came to 3.1 nM. Moreover, the “lowest rapamycin concentration sufficient to expand iCIL cells” value with iCIL cells is listed as 6.2 nM. In addition, the “rapamycin doses with robust growth (confluency)” value with FKBP12 KO iPSCs was “up to 100 nM”. For the same molecule, the “rapamycin dose with inhibition of growth (confluency)” value in the assay with wildtype iPSCs is given as not below 1 nM.
Take “rituximab: antibody added to RACR-iCIL co-cultures with lymphoma tumor cells”: the “further increase of tumor killing” value in assay [2] and in [3] was 10% each time.
Take `CO[C@@H]1C[C@H](C[C@H](C)C2CC(=O)[C@@H](C)/C=C(\C)[C@@H](O)[C@@H](OC)C(=O)[C@H](C)C[C@@H](C)/C=C/C=C/C=C(\C)[C@H](c3c[nH]c4c(C)cccc34)C[C@H]3CC[C@@H](C)[C@@](O)(O3)C(=O)C(=O)N3CCCC[C@H]3C(=O)O2)CC[C@@H]1O` (some centres unmarked) [AP21967]: the “iCIL expansion and differentiation” value with TagCAR-RACR iCIL cells was “sufficient to drive iCIL expansion in the absence of any other cytokine signaling”. Moreover, in the assay on RACR-iCILs, the “total RACR-iCILs one week after stimulation” value was “supported RACR-iCIL growth”. In addition, in the assay on RACR-CAR+ cells (4 nM AP21967, all media conditions, Day 40), the “percent of RACR-CAR+CD56+ cells” value is on record as “increase in the percent of RACR-CAR+CD56+ cells”. Besides, in the assay on RACR-CAR+ cells (UM729 alone (None) media plus rapalog), the “fold change in RACR-CAR+ cells” value was “largest fold change in RACR-CAR+ cells”.
For `O=C(O)CC[C@H](NC(=O)N[C@@H](CCC(=O)O)C(=O)O)C(=O)O` [DUPA], the Kd in assay [4] is 14 nM.
